T1: SRTF1 (Pimelobacter simplex, UniProt A0A0A1DUF2)
T1 construct: gene KR76_27130; assembled on quantum dots for FRET
T1 sequence (A0A0A1DUF2 1-189): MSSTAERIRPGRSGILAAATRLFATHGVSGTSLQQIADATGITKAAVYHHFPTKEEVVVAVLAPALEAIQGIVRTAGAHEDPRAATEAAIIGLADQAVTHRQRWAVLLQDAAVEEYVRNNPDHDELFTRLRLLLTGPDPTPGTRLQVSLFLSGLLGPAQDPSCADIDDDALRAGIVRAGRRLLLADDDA

T2: SRTF1 (Pimelobacter simplex ATCC 6946, UniProt A0A0A1DUF2 1-189)
T2 sequence: T1 sequence (A0A0A1DUF2 1-189)

B1: BLI-SCRM (dsDNA)
DNA 1: AAATTGTCCCGGGCCTTTCTCCGCGCGTCTGGTAACCCTTAGGATTACTC
DNA 2: GAGTAATCCTAAGGGTTACCAGACGCGCGGAGAAAGGCCCGGGACAATTT

Assays:
[1] = target: T1, SRTF1; experiment: QD-TF-FRET, ligand-induced release of Cy5-labelled operator DNA; assay type: biochemical; conditions: sensor 3: QD/TF/DNA ratio 1:1:18, operator with 2 mutated bases in one half of palindrome, HEPES, RT; allosteric
[2] = target: T2, SRTF1; experiment: BLI; no steroid; BLI: 28 mM Tris-HCl pH 8.0, 5 mM MgCl (so in the source), 4.25% glycerol, 25 mM NaCl, 1.67 mg/mL BSA, 30 C; QD-FRET: 1x HEPES with binding buffer (5x: 25 mM MgCl2, 25% glycerol, 250 mg/L salmon sperm DNA, 0.1 M Tris-HCl), RT; conditions: protein: recombinant; tags: C-terminal 6xHis; chain copies: 2; label: 5' biotin on strand 1; blunt

Molecule	IC50 [1]	binding result [2]
C[C@]12CCC(=O)C=C1CC[C@@H]1[C@@H]2[C@@H](O)C[C@]2(C=O)[C@@H](C(=O)CO)CC[C@@H]12 [ALD, aldosterone]	312 ± 42 nM	–
B1	–	no binding
